{
  "source": "patent US4604380A",
  "about": "“C-23-substituted mycaminosyltylonolide compounds, pharmaceutical compositions and methods of use” (Eli Lilly and Company, priority 1985, dated 1986)",
  "key": {"Streptococcus pyogenes": {"test_system": "Streptococcus pyogenes", "assay": "ED50 vs Streptococcus pyogenes experimental infection in mice (Table VI)", "assay_type": "in vivo", "details": "two doses, several values = results from more than one test", "protocol": "(§1) Certain formula 1a compounds have also shown in vivo antimicrobial activity against experimental bacterial infections. When two doses of test compound were administered to mice in experimental infections, the activity observed was measured as an ED50 value [effective dose in mg/kg to protect 50% of the test animals: see Warren Wick, et al., J. Bacteriol. 81, 233-235 (1961)]."}, "[1]": {"test_system": "Streptococcus Group D 2041", "assay": "MIC, standard agar-dilution assay (Table III)", "assay_type": "cell-based", "details": "GROUPD2041", "protocol": "(§2) The MIC's s in Table III were determined by standard agar-dilution assays. The MIC's in Table IV were obtained using a conventional broth-dilution microtiter test."}, "[2]": {"test_system": "Staphylococcus aureus V41", "assay": "MIC, standard agar-dilution assay (Table III)", "assay_type": "cell-based", "details": "Staphylococcus aureus V41, penicillin-resistant strain", "protocol": "as §2"}, "[3]": {"test_system": "Streptococcus pyogenes C203", "assay": "MIC, standard agar-dilution assay (Table III)", "assay_type": "cell-based", "details": "Streptococcus pyogenes, C203", "protocol": "as §2"}, "[4]": {"test_system": "Haemophilus influenzae C.L.", "assay": "MIC, standard agar-dilution assay (Table III)", "assay_type": "cell-based", "details": "Haemophilus influenzae", "protocol": "as §2"}, "[5]": {"test_system": "Staphylococcus epidermidis 222", "assay": "MIC, standard agar-dilution assay (Table III)", "assay_type": "cell-based", "details": "Staphylococcus epidermidis, 222", "protocol": "as §2"}, "[6]": {"test_system": "Staphylococcus aureus S13E", "assay": "MIC, standard agar-dilution assay (Table III)", "assay_type": "cell-based", "protocol": "as §2"}, "[7]": {"test_system": "Haemophilus influenzae 76", "assay": "MIC, standard agar-dilution assay (Table III)", "assay_type": "cell-based", "details": "Haemophilus influenzae, 76", "protocol": "as §2"}, "[8]": {"test_system": "Staphylococcus epidermidis EPI1", "assay": "MIC, standard agar-dilution assay (Table III)", "assay_type": "cell-based", "details": "Staphylococcus epidermidis, EPI1", "protocol": "as §2"}, "[9]": {"test_system": "Staphylococcus aureus X400", "assay": "MIC, standard agar-dilution assay (Table III)", "assay_type": "cell-based", "details": "Staphylococcus aureus, X400", "protocol": "as §2"}, "[10]": {"test_system": "Staphylococcus aureus X1.1", "assay": "MIC, standard agar-dilution assay (Table III)", "assay_type": "cell-based", "protocol": "as §2"}, "[11]": {"test_system": "Streptococcus Group D X66", "assay": "MIC, standard agar-dilution assay (Table III)", "assay_type": "cell-based", "protocol": "as §2"}, "[12]": {"test_system": "Mycoplasma gallisepticum 15E", "assay": "MIC, conventional broth-dilution microtiter test (Table IV)", "assay_type": "cell-based", "details": "Mycoplasmoides gallisepticum, 15E", "protocol": "as §2"}, "[13]": {"test_system": "Pasteurella multocida 60A", "assay": "MIC, conventional broth-dilution microtiter test (Table IV)", "assay_type": "cell-based", "details": "Pasteurella multocida, 60A", "protocol": "as §2"}, "[14]": {"test_system": "Pasteurella hemolytica 41D", "assay": "MIC, conventional broth-dilution microtiter test (Table IV)", "assay_type": "cell-based", "details": "broth-dilution microtiter; Pasteurella hemolytica 41D; read-out: MIC", "protocol": "as §2"}, "Mycoplasma hyorhinis 29E": {"test_system": "Mycoplasma hyorhinis 29E", "assay": "MIC, conventional broth-dilution microtiter test (Table IV)", "assay_type": "cell-based", "details": "broth-dilution microtiter; Mycoplasma hyorhinis 29E; read-out: MIC", "protocol": "as §2"}, "[15]": {"test_system": "Pasteurella multocida 68C", "assay": "MIC, conventional broth-dilution microtiter test (Table IV)", "assay_type": "cell-based", "details": "broth-dilution microtiter; Pasteurella multocida 68C; read-out: MIC", "protocol": "as §2"}, "[16]": {"test_system": "Pasteurella multocida 40G", "assay": "MIC, conventional broth-dilution microtiter test (Table IV)", "assay_type": "cell-based", "details": "broth-dilution microtiter; Pasteurella multocida 40G; read-out: MIC", "protocol": "as §2"}, "Streptococcus sp. 19F": {"test_system": "Streptococcus sp. 19F", "assay": "MIC, conventional broth-dilution microtiter test (Table IV)", "assay_type": "cell-based", "protocol": "as §2"}, "[17]": {"test_system": "Mycoplasma gallisepticum 36H", "assay": "MIC, conventional broth-dilution microtiter test (Table IV)", "assay_type": "cell-based", "details": "Mycoplasmoides gallisepticum, 36H", "protocol": "as §2"}, "[18]": {"test_system": "Staphylococcus aureus 19C", "assay": "MIC, conventional broth-dilution microtiter test (Table IV)", "assay_type": "cell-based", "details": "Staphylococcus aureus, 19C", "protocol": "as §2"}, "[19]": {"test_system": "Pasteurella hemolytica 22C", "assay": "MIC, conventional broth-dilution microtiter test (Table IV)", "assay_type": "cell-based", "details": "broth-dilution microtiter; Pasteurella hemolytica 22C; read-out: MIC", "protocol": "as §2"}, "[20]": {"test_system": "Mycoplasma hyopneumoniae S5972", "assay": "MIC, conventional broth-dilution microtiter test (Table IV)", "assay_type": "cell-based", "details": "Mesomycoplasma hyopneumoniae, S5972", "protocol": "as §2"}, "[21]": {"test_system": "Pasteurella multocida 17E", "assay": "MIC, conventional broth-dilution microtiter test (Table IV)", "assay_type": "cell-based", "details": "Pasteurella multocida, 17E", "protocol": "as §2"}, "[22]": {"test_system": "Bordetella bronchisepticum 95B", "assay": "MIC, conventional broth-dilution microtiter test (Table IV)", "assay_type": "cell-based", "protocol": "as §2"}, "[23]": {"test_system": "Mycoplasma gallisepticum 29C", "assay": "MIC, conventional broth-dilution microtiter test (Table IV)", "assay_type": "cell-based", "details": "Mycoplasmoides gallisepticum, 29C", "protocol": "as §2"}, "[24]": {"test_system": "Pasteurella hemolytica 23C", "assay": "MIC, conventional broth-dilution microtiter test (Table IV)", "assay_type": "cell-based", "details": "broth-dilution microtiter; Pasteurella hemolytica 23C; read-out: MIC", "protocol": "as §2"}, "[25]": {"test_system": "Pasteurella multocida 22A", "assay": "MIC, conventional broth-dilution microtiter test (Table IV)", "assay_type": "cell-based", "details": "broth-dilution microtiter; Pasteurella multocida 22A; read-out: MIC", "protocol": "as §2"}, "Mycoplasma synoviae 40A": {"test_system": "Mycoplasma synoviae 40A", "assay": "MIC, conventional broth-dilution microtiter test (Table IV)", "assay_type": "cell-based", "details": "Mycoplasmopsis synoviae, 40A", "protocol": "as §2"}, "[26]": {"test_system": "Streptococcous pneumoniae", "assay": "ED50 vs. Streptococcous pneumoniae experimental infection in mice (Table VII)", "assay_type": "in vivo", "details": "Mus musculus, sc, subcutaneous, two doses, read-out: ED50 Subcutaneous", "protocol": "as §1"}, "Pasteurella multocida": {"test_system": "Pasteurella multocida", "assay": "Activity in Pasteurella multocida-infected one-day-old chicks (Table VIII)", "assay_type": "in vivo", "details": "subcutaneous 30 mg/kg × 2, 1 and 4 hours post-challenge, all non-medicated chicks died within 24 hours", "protocol": "Table VIII summarizes the results of tests in which illustrative compounds were evaluated against a Pasteurella infection in one-day-old chicks. The compounds were administered parenterally after challenge of the chicks with Pasteurella multocida (0.1 mL of a 10^-4 dilution of a twenty-hour tryptose broth culture of an avian P. multocida given subcutaneously). In these tests, all non-medicated infected chicks died within 24 hours of Pasteurella challenge. In the tests summarized in Table VIII, the compounds were administered by subcutaneous injection at a dosage of 30 mg/kg, 1 and 4 hours post-challenge of the chicks with P. multocida."}, "[27]": {"test_system": "Streptococcus pneumoniae Park I", "assay": "microbe, parasite or virus in culture", "assay_type": "cell-based", "details": "Streptococcus pneumoniae", "protocol": "as §2"}, "Staphylococcus aureus": {"test_system": "Staphylococcus aureus", "assay": "ED50 vs. Staphylococcus aureus experimental infection in mice (Table V)", "assay_type": "in vivo", "details": "sc, subcutaneous, two doses, dose protecting 50% of animals, read-out: ED50 Subcutaneous", "protocol": "as §1"}},
  "note": "Like-named read-outs stand apart in the source and are kept apart here.",
  "data": [
    {"smiles": "CCC1OC(=O)CC(O)C(C)C(OC2OC(C)C(O)C(N(C)C)C2O)C(CC=O)CC(C)C(=O)C=CC(C)=CC1CN1CC2CCC(CC2)C1", "note": "(centres unmarked) [Compound 17, 23-(3-azabicyclo[3.2.2]nonan-3-yl)-OMT]", "values": [
      {"measurement": "ED50", "setting": "Streptococcus pyogenes; po, read-out: ED50 Oral", "value": "> 100", "unit": "mg/kg"},
      {"measurement": "ED50", "setting": "Streptococcus pyogenes; sc, subcutaneous, read-out: ED50 Subcutaneous", "value": 9.09, "unit": "mg/kg"},
      {"measurement": "ED50 Subcutaneous", "setting": "Streptococcus pyogenes; subcutaneous", "value": "> 10", "unit": "mg/kg × 2"},
      {"measurement": "MIC", "setting": "[1]", "value": 1, "unit": "µg/mL"},
      {"measurement": "MIC", "setting": "[2]", "value": 0.5, "unit": "µg/mL"},
      {"measurement": "MIC", "setting": "[3]", "value": 0.25, "unit": "µg/mL"},
      {"measurement": "MIC", "setting": "[4]", "value": 2, "unit": "µg/mL"},
      {"measurement": "MIC", "setting": "[5]", "value": 0.25, "unit": "µg/mL"},
      {"measurement": "MIC", "setting": "[6]", "value": 0.5, "unit": "µg/mL"},
      {"measurement": "MIC", "setting": "[7]", "value": 2, "unit": "µg/mL"},
      {"measurement": "MIC", "setting": "[8]", "value": 0.5, "unit": "µg/mL"},
      {"measurement": "MIC", "setting": "[9]", "value": 0.5, "unit": "µg/mL"},
      {"measurement": "MIC", "setting": "[10]", "value": 0.5, "unit": "µg/mL"},
      {"measurement": "MIC", "setting": "[11]", "value": 0.5, "unit": "µg/mL"},
      {"measurement": "MIC", "setting": "[12]", "value": 50, "unit": "µg/mL"},
      {"measurement": "MIC", "setting": "[13]", "value": 0.78, "unit": "µg/mL"},
      {"measurement": "MIC", "setting": "[14]", "value": 0.39, "unit": "µg/mL"},
      {"measurement": "MIC", "setting": "Mycoplasma hyorhinis 29E", "value": 0.39, "unit": "µg/mL"},
      {"measurement": "MIC", "setting": "[15]", "value": 0.39, "unit": "µg/mL"},
      {"measurement": "MIC", "setting": "[16]", "value": 0.39, "unit": "µg/mL"},
      {"measurement": "MIC", "setting": "Streptococcus sp. 19F", "value": 0.39, "unit": "µg/mL"},
      {"measurement": "MIC", "setting": "[17]", "value": 50, "unit": "µg/mL"},
      {"measurement": "MIC", "setting": "[18]", "value": 0.78, "unit": "µg/mL"},
      {"measurement": "MIC", "setting": "[19]", "value": 0.39, "unit": "µg/mL"},
      {"measurement": "MIC", "setting": "[20]", "value": 0.048, "unit": "µg/mL"},
      {"measurement": "MIC", "setting": "[21]", "value": 0.78, "unit": "µg/mL"},
      {"measurement": "MIC", "setting": "[22]", "value": 6.25, "unit": "µg/mL"},
      {"measurement": "MIC", "setting": "[23]", "value": "< 0.048", "unit": "µg/mL"},
      {"measurement": "MIC", "setting": "[24]", "value": 0.39, "unit": "µg/mL"},
      {"measurement": "MIC", "setting": "[25]", "value": 0.39, "unit": "µg/mL"},
      {"measurement": "MIC", "setting": "Mycoplasma synoviae 40A", "value": "< 0.048", "unit": "µg/mL"},
      {"measurement": "ED50", "setting": "[26]", "value": "> 10", "unit": "mg/kg"},
      {"measurement": "Number of Deaths/Number Treated", "setting": "Pasteurella multocida", "value": "10/10"},
      {"measurement": "MIC", "setting": "[27]", "value": 0.06, "unit": "µg/mL"},
      {"measurement": "ED50", "setting": "Staphylococcus aureus", "value": 2.31, "unit": "mg/kg"}
    ]}
  ]
}
